Source: US20210261512A1, “NOVEL COMPOUNDS” (INFLAZOME LIMITED, priority 2018, published 2021)

These molecules were tested against NLRP3 (Homo sapiens, UniProt Q96P20) (assay: THP-1 cells pyroptosis assay). Details: LPS 1.0 μg/ml, nigericin 5 μM, resazurin readout, 10 μM top dose (Example 2: top dose of 30 μM).
Type: cell-based
Design: Seed THP-1 cells (25,000 cells/well) containing 1.0 μg/ml LPS; host or cells: THP-1
Method: THP-1 cells (ATCC #TIB-202) were grown in RPMI containing L-glutamine (Gibco #11835) supplemented with imM sodium pyruvate (Sigma #S8636) and penicillin (100 units/ml)/streptomycin (0.1 mg/ml) (Sigma #P4333) in 10% Fetal Bovine Serum (FBS) (Sigma #F0804). The cells were routinely passaged and grown to confluency (˜10^6 cells/ml). On the day of the experiment, THP-1 cells were harvested and resuspended into RPMI medium (without FBS). The cells were then counted and viability (>90%) checked by Trypan blue (Sigma #T8154). Appropriate dilutions were made to give a concentration of 625,000 cells/ml. To this diluted cell solution was added LPS (Sigma #L4524) to give a 1 μg/ml Final Assay Concentration (FAC). 40 μl of the final preparation was aliquoted into each well of a 96-well plate. The plate thus prepared was used for compound screening.
The following method step-by-step assay was followed for compound screening. • 1. Seed THP-1 cells (25,000 cells/well) containing 1.0 μg/ml LPS in 40 μl of RPMI medium (without FBS) in 96-well, black walled, clear bottom cell culture plates coated with poly-D-lysine (VWR #734-0317) • 2. Add 5 μl compound (8 points four-fold dilution or 8 points half-log dilution, with 10 μM top dose, unless stated otherwise) or vehicle (DMSO 0.1% FAC) to the appropriate wells • 3. Incubate for 3 hrs at 37° C. and 5% CO2 • 4. Add 5 μl nigericin (Sigma #N7143) (FAC 5 μM) to all wells • 5. Incubate for 1 hr at 37° C. and 5% CO2 • 6. At the end of the incubation period, spin plates at 300×g for 3 mins and remove supernatant • 7. Then add 50 μl of resazurin (Sigma #R^7017) (FAC 100 μM resazurin in RPMI medium without FBS) and incubate plates for a further 1-2 hrs at 37° C. and 5% CO2 • 8. Plates were read in an Envision reader at Ex 560 nm and Em 590 nm • 9. IC50 data is fitted to a non-linear regression equation (log inhibitor vs response-variable slope 4-parameters)

NLRP3, sequence (Q96P20 whole entry): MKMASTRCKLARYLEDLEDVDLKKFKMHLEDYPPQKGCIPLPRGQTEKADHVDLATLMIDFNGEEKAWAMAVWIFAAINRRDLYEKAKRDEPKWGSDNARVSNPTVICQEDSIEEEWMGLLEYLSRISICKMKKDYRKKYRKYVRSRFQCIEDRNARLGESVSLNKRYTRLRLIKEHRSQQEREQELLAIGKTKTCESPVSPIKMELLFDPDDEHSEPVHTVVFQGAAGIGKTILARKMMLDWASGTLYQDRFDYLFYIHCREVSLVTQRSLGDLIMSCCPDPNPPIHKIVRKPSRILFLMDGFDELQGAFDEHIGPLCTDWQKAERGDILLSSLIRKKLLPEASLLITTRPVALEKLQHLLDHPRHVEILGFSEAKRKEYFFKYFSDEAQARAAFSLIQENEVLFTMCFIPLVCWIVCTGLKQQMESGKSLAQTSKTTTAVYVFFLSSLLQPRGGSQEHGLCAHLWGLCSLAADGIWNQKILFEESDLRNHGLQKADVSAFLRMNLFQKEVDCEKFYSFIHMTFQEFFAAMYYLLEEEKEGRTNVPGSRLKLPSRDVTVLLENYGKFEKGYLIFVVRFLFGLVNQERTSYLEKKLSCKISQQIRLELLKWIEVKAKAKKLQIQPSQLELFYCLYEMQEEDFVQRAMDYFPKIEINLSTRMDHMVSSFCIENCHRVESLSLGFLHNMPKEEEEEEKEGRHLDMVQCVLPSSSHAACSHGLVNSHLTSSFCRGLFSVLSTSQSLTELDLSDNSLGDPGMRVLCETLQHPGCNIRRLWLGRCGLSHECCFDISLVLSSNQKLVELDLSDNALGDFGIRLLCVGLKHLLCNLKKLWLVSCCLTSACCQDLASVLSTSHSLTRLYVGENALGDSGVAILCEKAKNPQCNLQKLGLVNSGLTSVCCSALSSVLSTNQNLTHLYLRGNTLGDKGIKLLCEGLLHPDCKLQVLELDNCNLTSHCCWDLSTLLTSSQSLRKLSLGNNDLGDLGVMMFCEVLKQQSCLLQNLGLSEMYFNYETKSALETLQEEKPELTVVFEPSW

Compound | IC50
O=S(=O)(CCCN1CCOCC1)c1nnc(Nc2c3c(cc4c2CCC4)CCC3)[nH]1 [Example 50, N-(1,2,3,5,6,7-hexahydro-s-indacen-4-yl)-5-((3-morpholinopropyl)sulfonyl)-4H-1,2,4-triazol-3-amine] | ≤ 5 µM
CN1CCN(CCCS(=O)(=O)c2nnc(Nc3c4c(cc5c3CCC5)CCC4)[nH]2)CC1 [Example 51, N-(1,2,3,5,6,7-hexahydro-s-indacen-4-yl)-5-((3-(4-methylpiperazin-1-yl)propyl)sulfonyl)-4H-1,2,4-triazol-3-amine] | ≤ 5 µM
CN(C)CCN(C)CCCS(=O)(=O)c1nnc(Nc2c3c(cc4c2CCC4)CCC3)[nH]1 [Example 52, N^1-(3-((5-((1,2,3,5,6,7-hexahydro-s-indacen-4-yl)amino)-4H-1,2,4-triazol-3-yl)sulfonyl)propyl)-N^1,N^2,N^2-trimethylethane-1,2-diamine] | ≤ 5 µM
CN1CCC(CN(C)CCCS(=O)(=O)c2nnc(Nc3c4c(cc5c3CCC5)CCC4)[nH]2)CC1 [Example 53, N-(1,2,3,5,6,7-hexahydro-s-indacen-4-yl)-5-((3-(methyl((1-methylpiperidin-4-yl)methyl)amino)propyl)sulfonyl)-4H-1,2,4-triazol-3-amine] | ≤ 5 µM
O=S(=O)(CCCNC1CC1)c1nnc(Nc2c3c(cc4c2CCC4)CCC3)[nH]1 [Example 56, 5-((3-(cyclopropylamino)propyl)sulfonyl)-N-(1,2,3,5,6,7-hexahydro-s-indacen-4-yl)-4H-1,2,4-triazol-3-amine] | ≤ 5 µM
O=S(=O)(CC1CNCCO1)c1nnc(Nc2c3c(cc4c2CCC4)CCC3)[nH]1 (centres unmarked) [Example 57, N-(1,2,3,5,6,7-hexahydro-s-indacen-4-yl)-3-((morpholin-2-ylmethyl)sulfonyl)-1H-1,2,4-triazol-5-amine] | ≤ 10 µM
CN1CCCC(CS(=O)(=O)c2nnc(Nc3c4c(cc5c3CCC5)CCC4)[nH]2)C1 (centres unmarked) [Example 58, N-(1,2,3,5,6,7-hexahydro-s-indacen-4-yl)-3-(((1-methylpiperidin-3-yl)methyl)sulfonyl)-1H-1,2,4-triazol-5-amine] | ≤ 5 µM
CN1CCCC1CS(=O)(=O)c1nnc(Nc2c3c(cc4c2CCC4)CCC3)[nH]1 (centres unmarked) [Example 61, N-(1,2,3,5,6,7-hexahydro-s-indacen-4-yl)-3-(((1-methylpyrrolidin-2-yl)methyl)sulfonyl)-1H-1,2,4-triazol-5-amine] | ≤ 10 µM
O=S(=O)(CC1CCCN1)c1nnc(Nc2c3c(cc4c2CCC4)CCC3)[nH]1 (centres unmarked) [Example 62, N-(1,2,3,5,6,7-hexahydro-s-indacen-4-yl)-3-((pyrrolidin-2-ylmethyl)sulfonyl)-1H-1,2,4-triazol-5-amine] | ≤ 10 µM
Cc1noc(CS(=O)(=O)c2nnc(Nc3c4c(cc5c3CCC5)CCC4)[nH]2)n1 [Example 70, N-(1,2,3,5,6,7-hexahydro-s-indacen-4-yl)-3-(((3-methyl-1,2,4-oxadiazol-5-yl)methyl)sulfonyl)-1H-1,2,4-triazol-5-amine] | ≤ 5 µM
CCN(CC)CCCS(=O)(=O)c1nnc(Nc2c(-c3ccccc3)cc(F)c3c2CCC3)[nH]1 [Example 78, 5-((3-(diethylamino)propyl)sulfonyl)-N-(7-fluoro-5-phenyl-2,3-dihydro-1H-inden-4-yl)-4H-1,2,4-triazol-3-amine] | ≤ 10 µM

More lines, now with the values ahead:

IC50 | Compound
≤ 5 µM | CCNCCCS(=O)(=O)c1nnc(Nc2c3c(cc4c2CCC4)CCC3)[nH]1 [Example 55, 5-((3-(ethylamino)propyl)sulfonyl)-N-(1,2,3,5,6,7-hexahydro-s-indacen-4-yl)-4H-1,2,4-triazol-3-amine]
≤ 1 µM | O=S(=O)(CCc1ccccn1)c1nnc(Nc2c3c(cc4c2CCC4)CCC3)[nH]1 [Example 63, N-(1,2,3,5,6,7-hexahydro-s-indacen-4-yl)-3-((2-(pyridin-2-yl)ethyl)sulfonyl)-1H-1,2,4-triazol-5-amine]
≤ 5 µM | O=S(=O)(c1nnc(Nc2c3c(cc4c2CCC4)CCC3)[nH]1)C1CCCC1 [Example 64, 3-(Cyclopentylsulfonyl)-N-(1,2,3,5,6,7-hexahydro-s-indacen-4-yl)-1H-1,2,4-triazol-5-amine]
≤ 10 µM | COCCCS(=O)(=O)c1nnc(Nc2c3c(cc4c2CCC4)CCC3)[nH]1 [Example 65, N-(1,2,3,5,6,7-hexahydro-s-indacen-4-yl)-3-((3-methoxypropyl)sulfonyl)-1H-1,2,4-triazol-5-amine]
≤ 10 µM | O=S(=O)(CC1CCOC1)c1nnc(Nc2c3c(cc4c2CCC4)CCC3)[nH]1 (centres unmarked) [Example 66, N-(1,2,3,5,6,7-hexahydro-s-indacen-4-yl)-3-(((tetrahydrofuran-3-yl)methyl)sulfonyl)-1H-1,2,4-triazol-5-amine]
≤ 10 µM | O=S(=O)(CC1CCCO1)c1nnc(Nc2c3c(cc4c2CCC4)CCC3)[nH]1 (centres unmarked) [Example 67, N-(1,2,3,5,6,7-hexahydro-s-indacen-4-yl)-3-(((tetrahydrofuran-2-yl)methyl)sulfonyl)-1H-1,2,4-triazol-5-amine]
≤ 5 µM | CNC(=O)CS(=O)(=O)c1nnc(Nc2c3c(cc4c2CCC4)CCC3)[nH]1 [Example 68, 2-((5-((1,2,3,5,6,7-hexahydro-s-indacen-4-yl)amino)-4H-1,2,4-triazol-3-yl)sulfonyl)-N-methylacetamide]
≤ 10 µM | O=S(=O)(Cc1ccccn1)c1nnc(Nc2c3c(cc4c2CCC4)CCC3)[nH]1 [Example 71, N-(1,2,3,5,6,7-hexahydro-s-indacen-4-yl)-3-((pyridin-2-ylmethyl)sulfonyl)-1H-1,2,4-triazol-5-amine]
≤ 10 µM | O=S(=O)(Cc1ccncc1)c1nnc(Nc2c3c(cc4c2CCC4)CCC3)[nH]1 [Example 72, N-(1,2,3,5,6,7-hexahydro-s-indacen-4-yl)-3-((pyridin-4-ylmethyl)sulfonyl)-1H-1,2,4-triazol-5-amine]
≤ 10 µM | O=S(=O)(Cc1cccnc1)c1nnc(Nc2c3c(cc4c2CCC4)CCC3)[nH]1 [Example 73, N-(1,2,3,5,6,7-hexahydro-s-indacen-4-yl)-3-((pyridin-3-ylmethyl)sulfonyl)-1H-1,2,4-triazol-5-amine]
≤ 5 µM | CN(C)c1cccc(CS(=O)(=O)c2nnc(Nc3c4c(cc5c3CCC5)CCC4)[nH]2)c1 [Example 74, 3-((3-(dimethylamino)benzyl)sulfonyl)-N-(1,2,3,5,6,7-hexahydro-s-indacen-4-yl)-1H-1,2,4-triazol-5-amine]
≤ 10 µM | CC(C)CCNS(=O)(=O)c1nnc(Nc2c3c(cc4c2CCC4)CCC3)[nH]1 [Example 82, 5-((1,2,3,5,6,7-hexahydro-s-indacen-4-yl)amino)-N-isopentyl-1H-1,2,4-triazole-3-sulfonamide]
≤ 10 µM | COCCNS(=O)(=O)c1nnc(Nc2c3c(cc4c2CCC4)CCC3)[nH]1 [Example 83, 5-((1,2,3,5,6,7-hexahydro-s-indacen-4-yl)amino)-N-(2-methoxyethyl)-4H-1,2,4-triazole-3-sulfonamide]
≤ 5 µM | CN1CCC(NS(=O)(=O)c2nnc(Nc3c4c(cc5c3CCC5)CCC4)[nH]2)C1 (centres unmarked) [Example 84, 5-((1,2,3,5,6,7-hexahydro-s-indacen-4-yl)amino)-N-(1-methylpyrrolidin-3-yl)-4H-1,2,4-triazole-3-sulfonamide]
≤ 10 µM | O=S(=O)(Nc1ccccc1)c1nnc(Nc2c3c(cc4c2CCC4)CCC3)[nH]1 [Example 85, 5-((1,2,3,5,6,7-hexahydro-s-indacen-4-yl)amino)-N-phenyl-4H-1,2,4-triazole-3-sulfonamide]
